For one assay, the system named is CEM-C7A cells. In words: Apoptosis assay in CEM-C7A cells (viable cell count, MTS). In kind it is cell-based, human. The note with it: CEM C7A cells, 100 nM, three day incubation. The procedure: The CEM-C7A cell line is a steroid sensitive clone of the CCRF-CEM cell line (ECACC 85112105). This is a T lymphoblastoid cell line with functional endogenous GR.
Apoptosis (programmed cell death) is mediated by a protein called Bax the transcription of which is primarily controlled by the GR in a ligand dependant manner. To measure the ability of a GR ligand to effect apoptosis a suitable cell line was incubated with ligand and a viable cell count was performed after three days.
CEM-C7A cells were plated out on to a 96well plate at 5×10^5/well. The steroids of FIGS. 1 and 2A were added immediately to generate a final concentration of 100 nM. After a three day incubation the live cell number in each well was assessed using Celltiter 96 Aqueous Non-Radioactive Cell Proliferation Assay (Promega). This assay is a calorimetric method for determining the number of viable cells in proliferation or chemosensitivity assays.
Briefly, the assay is composed of solutions of a novel tetrazolium compound (3-(4,5-dimethylthiazol-2-yl)-5-(3-carboxymethoxyphenyl)-2-(4-sulfophenyl)-2H-tetrazolium, MTS) and an electron coupling reagent (phenazine methosulfate; PMS). MTS is bioreduced by cells into a formazan product that is soluble in tissue culture medium. The absorbance of the formazan at 490 nm can be measured directly from 96 well assay plates without additional processing. The conversion of MTS into aqueous, soluble formazan is accomplished by dehydrogenase enzymes found in metabolically active cells. The quantity of formazan product as measured by the amount of 490 nm absorbance is directly proportional to the number of living cells in culture.

Assay [1] concerns zymosan induced neutrophil migration. In words: Air pouch model of inflammation, zymosan induced neutrophil migration. In kind it is in vivo, mice. The procedure: Male outbred Swiss albino mice (18-20 g body weight) were purchased from Bantin and Kingman (T.O. strain; Hull, Humberside) and maintained on a standard chow pellet diet with tap water ad libitum and a 12:00 h light/dark cycle. All animals were housed for 3 days prior to experimentation to allow body weight to reach 20-22 g. On the day of experiment mice ranged from 24-26 g.
Air-pouches were formed on the back of mice by air injection (2.5 ml s.c.) on day 0 and day 3 (Perretti and Flower, 1993).
Zymosan A was allowed to defrost at room temperature for 30 min prior to being added to sterile PBS at a concentration of 2 mg/ml forming a homogenous suspension.
At time 0, mice received either 0.5 ml of zymosan (1 mg) (group A, B, C) injected locally into the air-pouch. Group D and E were left untreated at this time-point. At 4 h post-zymosan the animals were placed in CO2. Air-pouches were then washed with 2 ml of PBS containing 3 mM EDTA, and livers were recovered and snap frozen for later analysis.
The number of migrated leukocytes (≧90% polymorphonuclear leukocytes, PMN) was determined in the lavage fluid from each air-pouch, by taking an aliquot (100 μl) of the lavage fluid and diluting 1:10 in Turk's solution (0.01% crystal violet in 3% acetic acid). The samples were then vortexed and 10 μl of the stained cell solution were placed in a Neubauer haematocymometer and neutrophils numbers counted using a light microscope (Olympus B061).
Neutrophil numbers were compared between groups using ANOVA plus the Bonferroni test. TAT levels were compared using a t-test.

The subject of assay [2] is tyrosine amino transferase (TAT). In words: Quantitation of endogenous tyrosine amino transferase (TAT) in the HEPG2 liver cell line. In kind it is cell-based, human. The conditions noted are these: HEPG2, 1 μM; p=0.014, two tailed t-test. An excerpt:
The HEP G2 cell line (ECACC: 85011430) is derived from human liver epithelial cells from a well differentiated hepatocellular carcinoma. This cell line has functional endogenous GR and is stimulated by GR activation to produce tyrosine amino transferase.
In this method a colourimetric approach is used to quantitate TAT activity. The TAT enzyme catalyses the following reaction: L-tyrosine+2-oxoglutarate⇄4-hydroxyphenylpyruvate (pHPP)+L-glutamate
This reaction also requires pyridoxal phosphate (PLP) as a co-factor.
Strong alkali conditions can then be used to convert pHPP to p-hydroxybenzaldehyde (pHBA) and oxalate. The amount of pHBA can then be assessed by measuring its absorbance at 331 nm (extinction coefficient 19,900 M^−1cm^−1) this figure is then assumed to be directly proportional to TAT activity. HEPG2 cells were cultivated till confluent on a 10 cm plate (˜10^7 cells). These cells were then scraped off and suspended in 500 μl of ice cold 0.14M KCl. The cells were lysed by 3 cycles of 10 second burst sonication at full power (50 W, 20 kHz Sonicator; Jencons, Leighton Buzzard, UK). The cells were kept on ice between each burst. […]
For each reaction a control reaction was set up without the ketoglutarate. […] The samples were incubated at room temperature for a further 30 mins and then the absorbance of each sample was assessed at 331 nm on a spectrophotometer (Ultrospec III, Pharmacia).

The subject of assay [3] is other members of the steroid receptor super family. The experiment in a line: Binding to other members of the steroid receptor super family.

For the compound `CC1CC2C3CCC4=CC(=O)C=CC4(C)C3(F)C(O)CC2(C)C12OC(C)(C)OCC2=O` (stereo not shown) [Compound A], the induction of apoptosis entry in the assay with CEM-C7A cells is on record as “most potent inducers of apoptosis”.

In the case of `CCCNC(=O)C1(O)C(C)CC2C3CCC4=CC(=O)C=CC4(C)C3(F)C(O)CC21C` (stereo not shown) [Compound G], in the assay on CEM-C7A cells, the induction of apoptosis result is reported as “apoptosis was induced”. For the same compound, in assay [1] (3 μg i.p. at -1 h, Zymosan 1 mg into air-pouch, 4 h time-point, mean ± S.E. of 8 mice), the “Neutrophils (10^6 per mouse)” value is recorded as 6.33 ± 0.79 * 10^6 per mouse. Besides, the “reduction of neutrophil accumulation” value in assay [1] (3 μg i.p., zymosan air pouch, 4 h) is around 30%. Also, the “TAT activity compared to dexamethasone” value in assay [2] is given as “significant reduction in TAT activity”. Also, the “binding to other members of the steroid receptor super family” value in assay [3] was “not to bind to other members of the steroid receptor super family”.

As to `CC1CC2C3CCC4=CC(=O)C=CC4(C)C3(F)C(O)CC2(C)C1(O)C(=O)NCCC(=O)O` (stereo not shown) [Q], the induction of apoptosis entry in the assay with CEM-C7A cells is recorded as “not”.

The values are drawn from patent publication US7763596B2, “Selective glucocorticoid receptor agonists” (The University of Manchester, priority 2000, dated 2010).
